For data set [1] the following is noted: mice; cited from earlier work.
Data set [2] is described as follows: In vitro release of NGF by dialysis in 5% BSA-PBS. Particulars: 5% BSA-PBS (pH 7), 37° C., first hour (n=4). It counts as physicochemical. The protocol: In vitro release study. The release of NGF from NGF NPs (n=4) was studied using a dialysis method. The release medium was PBS (pH 7) containing 5% BSA to mimic the physiological condition in blood. Briefly, 200 μl NGF NPs and […] release medium were loaded into the dialysis tube (invco 300 kDa). Then the dialysis tube was placed into a 30 ml release medium and shaken at a 37° C. at 135 rpm. At the time intervals (1, 2, 4, 6, 8, 24, 48 and 72 hours), 100 μl of the release medium were withdrawn and replaced with an equal volume of fresh medium. The amounts of released NGF in the medium were analyzed by a NGF Sandwich ELISA kit. As a control, free NGF (n=4) was studied in parallel.

In a further data set the test system is PC12 cells. The experiment in a line: Neurite outgrowth study. It counts as cell-based. The protocol: Neurite Outgrowth Study. It is important to maintain protein's activity after the formulation of the NPs. Thus, the inventors chose to measure the bioactivity of NGF HDL-mimicking NPs in PC12 cells for neurite outgrowth. They pre-coated a 6-well plate with rat tail collagen type I. They seeded PC12 cells at a density of 10000 cells/well to the pre-coated 6-well plate overnight to allow cells to attach on the plates. They diluted free NGF (10 μg/ml) and NGF HDL-mimicking NPs (10 μg/ml) with the culture medium to prepare various concentrations at 0.5, 1, 5, 10, 50, and 100 ng/ml using half-half dilution. Then, they added 100 μl of sample into each well of the plate and culture for 4 days. At day 4 they changed the medium to fresh medium containing the corresponding treatment and then continue the treatment for another 3 days. At day 7, they visualized cells by an inverted light microscope and take the imaging from each well at random spots under 10× magnification.

The conditions of data set [3]: rat, in vivo, iv; cited from earlier work.

As for `CC(=O)O[C@@]12CO[C@@H]1C[C@H](O)[C@@]1(C)C(=O)[C@H](O)C3=C(C)[C@@H](OC(=O)[C@H](O)[C@@H](NC(=O)OC(C)(C)C)c4ccccc4)C[C@@](O)([C@@H](OC(=O)c4ccccc4)[C@H]21)C3(C)C` [DTX, Docetaxel], the “maximal tolerate dose of single dose” value in data set [1] was 15 to 33 mg/kg.
Turning to “free NGF: Recombinant human NGF (nerve growth factor)”, the NGF released in data set [2] came out at 83%. Moreover, the neurite outgrowth result is listed as “neurite outgrowth cannot be observed clearly” in the data set on PC12 cells (day 7, concentration of NGF lower than 10 ng/ml) and “neurite outgrowth was clearly observed” in the data set with PC12 cells (day 7, treatment concentration higher than 10 ng/ml). Besides, in data set [3], the half-life entry was “about 5.4 min”.

Source of the values: US20170165200A1, “COMPOSITION OF LIPID-BASED NANOPARTICLES FOR SMALL MOLECULES AND MACROMOLECULES” (University of North Texas Health Science Center, priority 2015, published 2017).
